This note sets out measurements from patent US20260200925A1, “SMALL MOLECULE INHIBITORS OF KRAS MUTATED PROTEINS” (MERCK SHARP & DOHME LLC, priority 2021, published 2026).

In assay [1] the target is G13D (Homo sapiens, UniProt P01116, G13D). As to the kind of experiment: Guanine nucleotide exchange (GNE) assay, G13D. It counts as biochemical.
Procedure: (§1) The TR-FRET signal is measured on an Envision (PerkinElmer) plate reader: Excitation filter=340 nm; emission 1=495 nm; emission 2=520 nm; dichroic mirror=D400/D505; delay time=100 ms. The signal of each well is determined as the ratio of the emission at 520 nm to that at 495 nm. […] The apparent effect as a function of compound concentration is fit to a four-parameter logistic equation to calculate IC50 values using Spotfire software.
Assay [2] deals with HRAS (SEQ ID NO: 4) (Homo sapiens, UniProt P01112). As to the kind of experiment: SOS-catalyzed guanine nucleotide exchange (GNE) assay, HRAS.
Procedure: (§2) Specifically, the SOS-catalyzed nucleotide exchange assay utilizes a preformed time-resolved fluorescence resonance energy transfer (TR-FRET) complex containing a specific biotinylated RAS protein (KRAS-G12C/V/D, HRAS, NRAS; described above) with BODIPY-GDP, and Terbium-streptavidin. Test compounds are preincubated with this complex for 60 minutes.
(§3) To assemble the preformed TR-FRET complexes, each biotinylated RAS protein is diluted to 2 μM in an EDTA Buffer (20 mM HEPES, 50 mM sodium chloride, 10 mM EDTA, and 0.01% Tween) and incubated at room temperature for one hour. This mixture is then further diluted to 90 nM in an Assay Buffer (20 mM HEPES, 150 mM sodium chloride, 10 mM magnesium chloride, and 0.005% Tween) containing 15 nM of Terbium-Streptavidin (Invitrogen, catalog #PV3577) and 900 nM of BODIPY-GDP (Invitrogen, catalog #G22360) and incubated at room temperature for six hours. It should be noted that this preformed TR-FRET complex for each of the RAS proteins was made ahead of time, aliquoted and stored at −80° C. until the day of the experiment.
(§4) Once titrations are made, 10 nL of the diluted compounds is acoustically dispensed into a 384-well assay plate (Corning, catalog #3820) using an Echo 550 (Labcyte). Each well of the assay plate subsequently receives 3 μL of a specific 3× RAS preformed TR-FRET complex and 3 μL of Assay Buffer and is incubated at room temperature for 60 minutes (preincubation time). […] The final reaction in each well of 9 μL consists of 3 mM GTP, and the specific RAS and SOS proteins in the following concentrations: KRAS-G12C/SOS=3 nM/40 nM, KRAS-G12D/SOS=1 nM/40 nM, KRAS-G12V/SOS=1.25 nM/160 nM, HRAS/SOS=1.25 nM/40 nM, and NRAS/SOS=1.25 nM/40 nM.
as §1
In assay [3] the target is NRAS (SEQ ID NO: 5) (Homo sapiens, UniProt P01111). As to the kind of experiment: SOS-catalyzed guanine nucleotide exchange (GNE) assay, NRAS.
Procedure: as §2, §3, §4, §1
Assay [4] concerns the target Recombinant KRAS-G12D (SEQ ID NO: 2) (Homo sapiens, UniProt P01116, G12D). As to the kind of experiment: SOS-catalyzed guanine nucleotide exchange (GNE) assay, KRAS-G12D.
Procedure: as §2, §3, §4, §1
Assay [5] addresses Recombinant KRAS-G12V (SEQ ID NO: 3) (Homo sapiens, UniProt P01116, G12V). Briefly: SOS-catalyzed guanine nucleotide exchange (GNE) assay, KRAS-G12V.
Procedure: as §2, §3, §4, §1
Assay [6] has as its system AsPC-1 cells containing homozygous KRAS-G12D activating mutation (p-ERK). The following applies: Homo sapiens, ASPC1, 2 h, read-out: KRAS G12D ASPC-1 IC50 (nM).
Procedure: Procedure for Cellular Phospho-ERK Assay, G12D
AsPC-1 cells (ATCC® CRL-1682™), containing homozygous KRAS-G12D activating mutation, were cultured in T150 flask in growth medium (RPMI medium 1640-GlutaMAX™—I (ThermoFisher Scientific 61870) containing 10% fetal bovine serum (ThermoFisher Scientific 10091148)). The cells were harvested in growth medium after TrypLE (ThermoFisher scientific 12604021) digestion and were seeded in a 384-well collagen coated cell culture plate (Corning 356702) at a density of 15,000 cells/well, and incubated at 37° C., 5% CO2 overnight. […] RPMI medium 1640-GlutaMAX™—I was added to the intermediate plate and the contents of the intermediate plate were then transferred to the 384-well collagen coated cell culture plate, which was incubated at 37° C., 5% CO2 for 2 hours. After removal of medium from the collagen coated cell culture plate, cells were lysed in lysis buffer from Alpha SureFire® Ultra™ Multiplex p-ERK and total ERK assay kit (PerkinElmer MPSU-PTERK) containing Halt™ Protease and Phosphatase inhibitor cocktail (ThermoFisher Scientific 78446) at room temperature with constant shaking at 300 rpm for 30 minutes. The cell lysates were then transferred to an OptiPlate-384 plate (PerkinElmer 6005620), and the phosphorylation of ERK (p-ERK) and total ERK levels were detected by Alpha SureFire® Ultra™ Multiplex p-ERK kit and total ERK assay kit (PerkinElmer MPSU-PTERK) following the manufacturer's protocol. Assay plates were read on a EnVision Multimode Plate Reader (PerkinElmer), and the ratio of p-ERK vs. total ERK in each well was used as the final readout. Dose response curves were analyzed using a 4-parameter logistic model to calculate IC50 values using Spotfire software.
The subject of assay [7] is NCI-H358 cells containing homozygous KRAS-G12C activating mutation (p-ERK). As to conditions: Homo sapiens, NCI-H358, 2 h, read-out: G12C H358 IC50 (nM).
Procedure: Procedure for Cellular Phospho-ERK Assay, G12C
NCI-H358 cells (ATCC® CRL-5807™), containing homozygous KRAS-G12C activating mutation, were cultured in T150 flask in growth medium (RPMI medium 1640-GlutaMAX™—I (ThermoFisher Scientific 61870) containing 10% fetal bovine serum (ThermoFisher Scientific 10091148)). The cells were harvested in growth medium after TrypLE (ThermoFisher scientific 12604021) digestion and were seeded in a 384-well collagen coated cell culture plate (Corning 356702) at a density of 15,000 cells/well, and incubated at 37° C., 5% CO2 overnight. […] RPMI medium 1640-GlutaMAX™—I was added to the intermediate plate and the contents of the intermediate plate were then transferred to the 384-well collagen coated cell culture plate, which was incubated at 37° C., 5% CO2 for 2 hours. After removal of medium from the collagen coated cell culture plate, cells were lysed in lysis buffer from Alpha SureFire® Ultra™ Multiplex p-ERK and total ERK assay kit (PerkinElmer MPSU-PTERK) containing Halt™ Protease and Phosphatase inhibitor cocktail (ThermoFisher Scientific 78446) at room temperature with constant shaking at 300 rpm for 30 minutes. The cell lysates were then transferred to an OptiPlate-384 plate (PerkinElmer 6005620), and the phosphorylation of ERK (p-ERK) and total ERK levels were detected by Alpha SureFire® Ultra™ Multiplex p-ERK kit and total ERK assay kit (PerkinElmer MPSU-PTERK) following the manufacturer's protocol. Assay plates were read on an EnVision Multimode Plate Reader (PerkinElmer), and the ratio of p-ERK vs. total ERK in each well was used as the final readout. Dose response curves were analyzed using a 4-parameter logistic model to calculate IC50 values using Spotfire software.

Molecules are shown by their SMILES.

Chain of Recombinant KRAS-G12D (SEQ ID NO: 2) (P01116 with tags, fused parts or gaps isoform P01116-2 G12D): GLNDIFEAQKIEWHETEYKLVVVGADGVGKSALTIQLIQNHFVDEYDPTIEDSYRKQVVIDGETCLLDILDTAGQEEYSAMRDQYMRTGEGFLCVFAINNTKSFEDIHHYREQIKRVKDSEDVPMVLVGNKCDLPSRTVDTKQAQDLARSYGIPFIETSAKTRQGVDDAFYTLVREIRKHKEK
Chain of G13D (P01116 1-188 isoform P01116-2 G13D): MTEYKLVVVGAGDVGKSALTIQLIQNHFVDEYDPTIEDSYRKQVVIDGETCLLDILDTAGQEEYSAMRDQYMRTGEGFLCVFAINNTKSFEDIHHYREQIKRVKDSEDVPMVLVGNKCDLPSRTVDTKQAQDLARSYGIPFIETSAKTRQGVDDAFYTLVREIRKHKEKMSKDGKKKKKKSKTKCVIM
Chain of NRAS (SEQ ID NO: 5) (P01111 with tags, fused parts or gaps): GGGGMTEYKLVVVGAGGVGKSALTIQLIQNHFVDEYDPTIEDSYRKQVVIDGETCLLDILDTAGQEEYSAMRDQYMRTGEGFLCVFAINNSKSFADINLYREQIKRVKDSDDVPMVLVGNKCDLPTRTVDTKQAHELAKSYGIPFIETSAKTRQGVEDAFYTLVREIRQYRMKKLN
Chain of HRAS (SEQ ID NO: 4) (P01112 with tags, fused parts or gaps): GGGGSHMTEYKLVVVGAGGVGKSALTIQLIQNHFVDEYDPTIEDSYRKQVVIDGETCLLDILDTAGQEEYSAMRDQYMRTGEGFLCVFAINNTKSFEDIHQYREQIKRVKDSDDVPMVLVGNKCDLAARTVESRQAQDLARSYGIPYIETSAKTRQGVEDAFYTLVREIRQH
Chain of Recombinant KRAS-G12V (SEQ ID NO: 3) (P01116 with tags, fused parts or gaps isoform P01116-2 G12V): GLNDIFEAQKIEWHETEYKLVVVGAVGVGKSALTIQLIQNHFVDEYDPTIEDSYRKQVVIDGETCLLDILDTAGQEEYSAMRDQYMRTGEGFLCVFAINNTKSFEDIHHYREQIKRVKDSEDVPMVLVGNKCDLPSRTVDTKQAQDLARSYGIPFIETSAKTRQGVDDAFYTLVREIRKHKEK

By IC50 is commonly meant the concentration at which inhibition is half-maximal. Take `CN(C)CC1(COc2nc(N3CCCC(O)CC3)c3cc(Cl)c(-c4ccc(F)c5sc(N)nc45)c(F)c3n2)CC1` (centres unmarked) [Ex-17, 1-(7-(2-amino-7-fluorobenzo[d]thiazol-4-yl)-6-chloro-2-((1-((dimethylamino)methyl)cyclopropyl)methoxy)-8-fluoroquinazolin-4-yl)azepan-4-ol]: the IC50 in assay [1] is 341 nM; in assay [2] it was above 9950 nM; in assay [3], above 9950 nM; in assay [4], 283 nM; in assay [5] it was 237 nM.
Regarding `Cc1cc2[nH]ncc2c(-c2c(F)cc3c(N4CCOC[C@@](C)(O)C4)nc(OC[C@@]45CCCN4C[C@H](F)C5)nc3c2F)c1C(F)(F)F` [Ex-41, (6S)-4-(6,8-difluoro-2-(((2R,7aS)-2-fluorotetrahydro-1H-pyrrolizin-7a(5H)-yl)methoxy)-7-(6-methyl-5-(trifluoromethyl)-1H-indazol-4-yl)quinazolin-4-yl)-6-methyl-1,4-oxazepan-6-ol], the IC50 in assay [1] was 48 nM; in assay [6], 285 nM; in assay [7], 203 nM; in assay [2], above 11100 nM; in assay [3] it was above 11100 nM; in assay [4], 33 nM. In assay [5], the IC50 is 60 nM.
For the molecule `C#Cc1cccc2cc(O)cc(-c3c(F)cc4c(N5CCC[C@@](C)(O)C5)nc(OC[C@@]56CCCN5C[C@H](F)C6)nc4c3F)c12` [Ex-42, (3R)-1-(7-(8-ethynyl-3-hydroxvnaphthalen-1-yl)-6,8-difluoro-2-(((2R,7aS)-2-fluorotetrahydro-1H-pyrrolizin-7a(5H)-yl)methoxy)quinazolin-4-yl)-3-methylpiperidin-3-ol], the IC50 in assay [1] is 4 nM; in assay [6] it was 91 nM; in assay [7], 58 nM; in assay [2], above 10000 nM; in assay [3] it was above 10000 nM; in assay [4] it was 3 nM. Besides, the IC50 in assay [5] is 3 nM.
`C#Cc1cccc2cc(O)cc(-c3c(Cl)cc4c(N5CCC[C@@](C)(O)C5)nc(OC[C@@]56CCCN5C[C@H](F)C6)nc4c3F)c12` [Ex-1, (3R)-1-(6-chloro-7-(8-ethynyl-3-hydroxvnaphthalen-1-yl)-8-fluoro-2-(((2R,7aS)-2-fluorotetrahydro-1H-pyrrolizin-7a(5H)-yl)methoxy)quinazolin-4-yl)-3-methylpiperidin-3-ol]: the half-maximal inhibitory concentration (IC50) in assay [6] was 70 nM; in assay [7], 41 nM; in assay [2] it was above 9950 nM; in assay [3] it was above 9950 nM.
